# Experimental data from ChEMBL document CHEMBL1130727, “Benzothiopyran-4-one based reversible inhibitors of the human cytomegalovirus (HCMV) protease” (Bioorg Med Chem Lett, 1998).
# Target: T1, Capsid scaffolding protein (Human cytomegalovirus (strain AD169) (HHV-5) (Human herpesvirus 5), UniProt P16753)
# T1 sequence (P16753 whole entry): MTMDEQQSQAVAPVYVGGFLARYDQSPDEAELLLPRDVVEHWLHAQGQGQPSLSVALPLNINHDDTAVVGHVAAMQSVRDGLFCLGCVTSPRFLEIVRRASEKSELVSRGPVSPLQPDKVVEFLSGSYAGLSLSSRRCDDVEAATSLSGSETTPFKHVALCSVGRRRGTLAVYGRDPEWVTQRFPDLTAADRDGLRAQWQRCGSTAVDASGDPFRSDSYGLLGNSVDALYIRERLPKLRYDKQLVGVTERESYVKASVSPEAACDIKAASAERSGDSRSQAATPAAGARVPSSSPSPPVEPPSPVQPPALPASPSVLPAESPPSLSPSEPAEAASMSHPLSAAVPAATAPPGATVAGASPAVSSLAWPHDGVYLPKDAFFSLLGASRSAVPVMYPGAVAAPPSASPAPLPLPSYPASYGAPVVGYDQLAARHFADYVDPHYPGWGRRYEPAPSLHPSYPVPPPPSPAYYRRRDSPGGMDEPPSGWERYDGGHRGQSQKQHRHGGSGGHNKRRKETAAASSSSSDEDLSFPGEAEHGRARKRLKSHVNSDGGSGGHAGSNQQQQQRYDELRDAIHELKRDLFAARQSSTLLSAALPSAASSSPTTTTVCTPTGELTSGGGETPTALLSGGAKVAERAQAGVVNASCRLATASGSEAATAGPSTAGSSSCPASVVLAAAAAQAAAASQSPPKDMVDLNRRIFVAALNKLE
# Assay: Inhibitory activity against human cytomegalovirus (HCMV) protease was evaluated
# Design: species or system Human betaherpesvirus 5
row,SMILES,IC50
1,CCOC(=O)c1ccc2c(c1)C(=O)C=C(c1ccc([N+](=O)[O-])cc1)S2(=O)=O,180 nM
2,O=C1C=C(c2ccccc2)S(=O)(=O)c2ccccc21,1500 nM
3,O=C1C=C(c2cccnc2)S(=O)(=O)c2ccccc21,200 nM
4,O=C1C=C(c2ccc(-c3ccccc3)cc2)S(=O)(=O)c2ccccc21,60 nM
5,CCCCCCCC1=CC(=O)c2ccccc2S1(=O)=O,1400 nM
6,CS(=O)(=O)c1ccc(C2=CC(=O)c3ccccc3S2(=O)=O)cc1,100 nM
7,Cc1cccc2c1C(=O)C=C(c1ccc([N+](=O)[O-])cc1)S2(=O)=O,100 nM
8,O=c1cc(-c2ccccc2)[s+]([O-])c2ccccc12 (stereo not given),10000 nM
9,CC(C)(C)C1=CC(=O)c2ccccc2S1(=O)=O,> 34000 nM
10,CS(=O)(=O)c1ccc(-c2cc(=O)c3ccccc3s2)cc1,> 34000 nM
11,O=c1cc(-c2ccccc2)sc2ccccc12,> 34000 nM
12,Cc1cccc2c1S(=O)(=O)C(c1ccc([N+](=O)[O-])cc1)=CC2=O,110 nM
13,O=c1cc(-c2cccnc2)sc2ccccc12,> 34000 nM
14,O=C1C=C(c2ccc([N+](=O)[O-])cc2)S(=O)(=O)c2ccccc21,60 nM
15,O=C1C=C(c2cccs2)S(=O)(=O)c2ccccc21,460 nM
16,O=C1C=C(c2cc[n+]([O-])cc2)S(=O)(=O)c2ccccc21,600 nM
17,O=C1C=C(c2ccncc2)S(=O)(=O)c2ccccc21,100 nM
18,CC(C)c1cccc2c1S(=O)(=O)C(c1ccc([N+](=O)[O-])cc1)=CC2=O,180 nM
19,O=C1C=C(c2ccc[n+]([O-])c2)S(=O)(=O)c2ccccc21,600 nM
20,O=C1C=C(c2ccsc2)S(=O)(=O)c2ccccc21,> 34000 nM
